Measured values published in patent US20100074886A1, “CCR2 ANTAGONISTS FOR TREATMENT OF FIBROSIS” (priority 2006, published 2010).

How the values were obtained:
[1] = tested on: fibrotic fibroblasts (UIP patients); test: Profibrotic gene expression (real time PCR) after 24 hrs stimulation of fibrotic fibroblasts; format: cell-based, human; details: for IL13Ra2 gene expression (FIG. 7B): fibroblasts, cell type not given; for CTGF gene expression (FIG. 5): fibrotic (UIP) fibroblasts; for TGFb1 gene expression (FIG. 4) / aSMA expression (FIG. 2) / increase in aSMA expression: fibrotic fibroblasts; for increase in aSMA expression: vs unstimulated
Text: (§1) Cell lines were provided by Dr Cory Hogaboam at the University of Michigan. All of the primary fibroblast lines were isolated as previously described (Hogaboam et al. 1999 J Immunol 163(4):2193-201). Pulmonary fibroblasts were isolated from lung biopsies taken from UIP patients (n=4) and these are referred to as “fibrotic fibroblasts”. Fibroblasts were also isolated from lung tissue taken during lung tumor resection (n=5) and these samples were confirmed to be non-fibrotic by histological analysis. These non-fibrotic tissue derived fibroblasts are referred to as “non-fibrotic fibroblasts”.
(§2) Human lung fibroblasts were plated into 24 well plates (Costar, Corning, N.Y.) at 100,000 cells/well and allowed to adhere for 8 hours. The cells were then washed with PBS and cultured overnight in serum free media (DMEM with 1-Glutamine, Pen/Strep). Cells were then stimulated for 24 hrs in the presence or absence of TGFb-1 (1 or 10 ng/mL), PDGF-AB (20 or 200 ng/mL) or CCL2 (1 or 10 ng/mL). TGFb1, PDGF-AB and CCL2 were purchased from R&D Systems. Supernatants were removed and RNA was subsequently isolated using RNeasy Plus Mini-Kits (QIAGEN, Valencia, Calif.) as per manufacturer's instructions and RNA was reverse transcribed into cDNA using TaqManâ Reverse Transcription Reagents (Applied Biosystems, Foster City, Calif.). Profibrotic gene expression was determined by real time PCR using the Taqmanâ Universal PCR Master Mix (Applied Biosystems) and pre-developed Taqmanâ Gene Expression Assays (Applied Biosystems) as per manufacture's instructions.
(§3) Quantitative gene expression was calculated using the comparative CT method, where CT values are determined as the threshold cycle number for which gene expression is first detected. Fold changes in gene expression for the genes of interest were first normalized to the housekeeping gene 18S, giving ACT values. Fold changes in expression between fibrotic and non-fibrotic fibroblasts were calculated as: ΔCT(non-fibrotic)−ΔCT(fibrotic)=ΔΔCT, where the non-fibrotic gene expression served as the calibrator. Fold changes in gene expression due to in vitro stimulation were calculated by ΔΔCT=ΔCT(unstimulated)−ΔCT(stimulated), where the unstimulated sample served as calibrator. The calculation 2-ΔΔCT then gives a relative value for final fold change when compared to calibrator.

non-fibrotic fibroblasts = test: Profibrotic gene expression (real time PCR) after 24 hrs stimulation of non-fibrotic fibroblasts; format: cell-based, human
Text: as §1, §2, §3

Row | Substance | IL13Ra1 gene expression (FIG. 7A) ([1]; UIP fibroblasts) | TGFbRII gene expression (FIG. 6B) ([1]; UIP fibroblasts) | procollagen I gene expression (FIG. 3A) ([1]; UIP fibroblasts) | procollagen III gene expression (FIG. 3B) ([1]; UIP fibroblasts) | IL13Ra2 gene expression (FIG. 7B) [1] | CTGF gene expression (FIG. 5) [1] | TGFb1 gene expression (FIG. 4) [1] | aSMA expression (FIG. 2) [1] | increase in aSMA expression [1] | aSMA expression (FIG. 2) (non-fibrotic fibroblasts) | TGFbRI gene expression (FIG. 6A) ([1]; UIP fibroblasts) | CTGF gene expression (FIG. 5) (non-fibrotic fibroblasts) | TGFb1 gene expression (FIG. 4) (non-fibrotic fibroblasts)
1 | CCL2: CC-chemokine ligand 2, Monocyte Chemoattractant Protein 1; purchased from R&D Systems, used as fibroblast stimulus | upregulated | somewhat greater increase in TGFbRII | induces | induces | upregulated | induced an increase | enhances TGFb1 gene expression | induced an increase | more than 10 fold | only induced an increase in aSMA expression in fibrotic fibroblasts |  |  | 
2 | PDGF: platelet-derived growth factor alpha/beta; purchased from R&D Systems, used as fibroblast stimulus | upregulated |  |  |  | upregulated | induced an increase |  | modest increase | less than 10 fold | only in the fibrotic fibroblasts |  |  | 
3 | TGFb1: transforming growth factor beta-1; purchased from R&D Systems, used as fibroblast stimulus | upregulated |  |  |  | upregulated | induced an increase | increased TGFβ1 | induced aSMA |  | induced aSMA | greater effect on TGFbRI | induced an increase | increased TGFβ1
